The source of these data is patent EP4772514A1, “MACROCYCLIC COMPOUNDS, PREPARATION METHOD THEREFOR, AND USE THEREOF” (Genfleet Therapeutics (Shanghai) Inc., priority 2023, dated 2025).

Structures are written as SMILES. Where two headings read alike, the source gives them in different places.

For one test, the system named is NCI-H441 cells. Nature of the test: 3D cell proliferation assay (CellTiter Glo-3D) in NCI-H441 cells. Format: cell-based. Conditions: NCI-H441, human lung cancer cell strain, KRAS G12V mutation, 3D culture, 2% FBS, 5 days, read-out: H441 AP IC50. The text has this: MIA PaCa-2 cells were purchased from ATCC, Cat. No. CRL-1420; AsPC-1 cells were purchased from ATCC, Cat. No. CRL-1682; NCI-H441 cells were purchased from ATCC, Cat. No. HTB-174; NCI-H1975 cells were purchased from ATCC, Cat. No. CRL-5908; DMEM medium was purchased from Gibco, Cat. No. 11995-065; RPMI-1640 medium was purchased from Gibco, Cat. No. 11875-093; FBS was purchased from Gibco, Cat. No. 10099-141C; penicillin/streptomycin double-antibiotic solution (PS) was purchased from Gibco, Cat. No. 15140-122; Horse serum was purchased from Gibco, Cat. No. 16050130; trypsin (containing EDTA) was purchased from Gibco, Cat. No. 25200-072; DMSO was purchased from VWRAMRESCO, Cat. No. 0231-500ML; 384-well cell culture plates were purchased from Corning, Cat. No. 3830; white-bottomed, opaque 384-well assay plates were purchased from Corning, Cat. No. 3570; CellTiter Glo-3D kit was purchased from Promega, Cat. No. G9683; cell counter was purchased from CHEMOMETEC, model: NC-200; microplate reader was purchased from PerkinElmer, model: EnVision.
MIA PaCa-2, a human pancreatic cancer cell strain endogenously containing a KRAS^G12Cmutation, was cultured in a complete medium containing DMEM + 10% FBS + 2.5% Horse serum + 1% PS. AsPC-1, a human pancreatic cancer cell strain endogenously containing a KRAS^G12D mutation, was cultured in a complete medium containing RPMI-1640 + 10% FBS + 1% PS. NCI-H441 cells, a human lung cancer cell strain endogenously containing a KRAS^G12V mutation, were cultured in a complete medium containing RPMI-1640 + 10% FBS + 1% PS. NCI-H1975, a KRAS wild-type human lung cancer cell strain whose cell proliferation […], was cultured in a complete medium containing RPMI-1640 + 10% FBS + 1% PS.
The cells were digested with trypsin (containing EDTA), collected in their respective low-serum complete media containing 2% FBS (for MIA Paca-2 cell culture: DMEM + 2% FBS + 0.5% Horse serum + 1% PS), and counted. After the cell density was adjusted as required, MIA PaCa-2 cells (200 cells/well), AsPC-1 cells (800 cells/well), NCI-H441 cells (800 cells/well), or NCI-H1975 cells (400 cells/well) were seeded into a 384-well cell culture plate, with the volume of the medium in each well being 45 µL. The cell culture plate was incubated in an incubator at 37 °C with 5% CO2 overnight. A series of 3.16-fold gradient dilutions of a 1000× compound stock solution were prepared with DMSO, and then diluted 100-fold with the complete medium containing 2% FBS described above to give 10× compound stock solutions. On the day after cell seeding, 5 µL of the 10× compound stock solution was added to each cell culture well. As a result, the final concentration of the compound in the cell culture well became 1×, and the DMSO content in the well was 0.1%. In addition to the compound-treated wells described above, cell-containing DMSO control wells (with 5 µL of the complete medium containing 1% DMSO added to each well) and cell-free medium control wells (containing 50 µL of the complete medium with 2% FBS) were also set. The culture plate was incubated in an incubator at 37 °C with 5% CO2 for another 5 days, and then 30 µL of CellTiter-Glo working solution was added to each well. The mixture was well mixed, incubated for 30 min, left to stand at room temperature for 30 min, and then transferred to a white-bottomed, opaque 384-well assay plate at 40 µL/well. The chemiluminescence values (RLU) were measured using a microplate reader, and the cell proliferation inhibition rate for each well was calculated: IR(%) = (RLUDMSO - RLUcompound)/(RLUDMSO - RLUblank) × 100%, where RLUDMSO is the average RLU signal value from the DMSO control well samples, RLUblank is the average RLU signal value from the medium control well samples, and RLUcompound is the RLU signal value from the compound-treated well samples. […]

A further test deals with p-ERK. Nature of the test: Cell p-ERK assay (HTRF, Advance ERK phospho-T202/Y204 kit) in NCI-H441 cells. Format: cell-based. Conditions: NCI-H441, human non-small cell lung cancer cell strain, KRAS G12V mutation, 3 h compound incubation. The protocol: AsPC-1 cells were purchased from ATCC, Cat. No. CRL-1682; NCI-H441 cells were purchased from ATCC, Cat. No. HTB-174; RPMI-1640 medium was purchased from Gibco, Cat. No. 11875-093; FBS was purchased from Gibco, Cat. No. 10099-141C; penicillin/streptomycin double-antibiotic solution (PS) was purchased from Gibco, Cat. No. 15140-122; trypsin (containing EDTA) was purchased from Gibco, Cat. No. 25200-072; DMSO was purchased from VWRAMRESCO, Cat. No. 0231-500ML; 96-well cell culture plates were purchased from Corning, Cat. No. 3599; white-bottomed, opaque 96-well plates were purchased from Cisbio, Cat. No. 66PL96025; Advance ERK phospho-T202/Y204 kit was purchased from Cisbio, Cat. No. 64AERPEH; cell counter was purchased from CHEMOMETEC, model: NC-200; microplate reader was purchased from PerkinElmer, model: EnVision.
AsPC-1, a human pancreatic cancer cell strain endogenously containing a KRAS^G12D mutation, was cultured in a complete medium containing RPMI-1640 + 10% FBS + 1% PS. NCI-H441, a human non-small cell lung cancer cell strain endogenously containing a KRAS^G12V mutation, was cultured in a complete medium containing RPMI-1640 + 10% FBS + 1% PS.
The cells were digested with trypsin (containing EDTA), collected in their corresponding complete media, and counted. The density of the cell suspensions was adjusted with their corresponding complete media, and AsPC-1 cells (10000 cells/well) or NCI-H441 cells (20000 cells/well) were seeded into a 96-well cell culture plate, with the volume of the medium in each well being 80 µL. The cell culture plate was incubated in an incubator at 37 °C with 5% CO2 overnight. A series of 3.16-fold gradient dilutions of a 1000× compound stock solution were prepared with DMSO, and then diluted 200-fold with the complete medium described above to give 5× compound stock solutions. On the day after cell seeding, 20 µL of the 5× compound stock solution was added to each cell culture well. As a result, the final concentration of the compound in the cell culture well became 1×, and the DMSO content in the well was 0.1%. In addition to the compound-treated wells described above, cell-containing DMSO control wells were also set. A complete medium containing 0.5% DMSO was added at 20 µL/well. After the mixture was well mixed, the culture plate was incubated in the incubator at 37 °C with 5% CO2 for another 3 h. The medium was then removed from the culture wells, and 50 µL of cell lysis buffer (from Advance ERK phospho-T202/Y204 kit) was added to each well. The mixture was well mixed, incubated for 30 min, and then transferred to a white-bottomed, opaque 96-well assay plate at 16 µL/well, and separately, 16 µL of cell lysis buffer was added to additional wells (serving as blank wells) in the assay plate. After the transfer was completed, 4 µL of p-ERK HTRF antibody mixture (from Advance ERK phospho-T202/Y204 kit) was added to each well of the assay plate, followed by a 4-hour incubation. The HTRF signal values (RLU) were then measured using a microplate reader, and the inhibition rate of the compound against p-ERK levels was calculated as follows: IR(%) = (RLUDMSO - RLUcompound)/(RLUDMSO - RLUblank) × 100%, where RLUDMSO is the average HTRF signal value from the DMSO control well samples, RLU is the average HTRF signal value from the blank well samples, and RLUcompound is the HTRF signal value from the compound-treated well samples. Using an XLfit software, the IR(%) values were plotted against the logarithm of the compound concentrations, and the dose-response curves were fitted using the four-parameter method to calculate the IC50 values.
Background: TR-FRET usually uses a lanthanide donor and a delayed reading to cut background.

Broadly, the IC50 is the concentration that inhibits the measured activity by half.

For the compound `CCn1nc2c(c1-c1cc(C#CCN3CCS(=O)(=O)CC3)cnc1[C@H](C)OC)CC(C)(C)COC(=O)[C@@H]1CCCN(N1)C(=O)[C@@H](NC(=O)[C@H](C(C)C)N(C)C(=O)COc1ccccc1)Cc1nc(cs1)/C=C/2` (atropisomer, axis not shown; (Ra)) [Compound Z57, (2S)-N-((4^2Z,8^3S,2E,6S)-(Ra)-1^5-(5-(3-(1,1-dioxidothiomorpholino)prop-1-yn-1-yl)-2-((S)-1-methoxyethyl)pyridin-3-yl)-1^1-ethyl-12,12-dimethyl-7,9-dioxo-8^1,8^2,8^1,8^4,8^1,8^6-hexahydro-1^1H-10-oxa-4(4,2)-thiazola-8(1,3)-pyridazina-1(3,4)-pyrazolocyclotridec-2-en-6-yl)-3-methyl-2-(N-methyl-2-phenoxyacetamido)butanamide], the IC50 came out at 245 nM in the test with NCI-H441 cells (Homo sapiens, NCI-H441, 120 h) and 88 nM in the test with p-ERK (Homo sapiens, NCI-H441, 3 h).

In the case of `CCn1nc2c(c1-c1cc(C#CCN3CCS(=O)(=O)CC3)cnc1[C@H](C)OC)CC(C)(C)COC(=O)[C@@H]1CCCN(N1)C(=O)[C@@H](NC(=O)[C@H](C(C)C)N(C)c1ccc3ncn(C)c3c1)Cc1nc(cs1)/C=C/2` (atropisomer, axis not shown; (Ra)) [Compound Z115, (2S)-N-((4^2Z,8^3S,2E,6S)-1^5-(Ra)-(5-(3-(1,1-dioxidothiomorpholino)prop-1-yn-1-yl)-2-((S)-1-methoxyethyl)pyridin-3-yl)-1^1-ethyl-12,12-dimethyl-7,9-dioxo-8^1,8^2,8^3,8^4,8^5,8^6-hexahydro-1^1H-10-oxa-4(4,2)-thiazola-8(1,3)-pyridazina-1(3,4)-pyrazolocyclotridec-2-en-6-yl)-3-methyl-2-(methyl(1-methyl-1H-benzo[d]imidazol-6-yl)amino)butanamide], the half-maximal inhibitory concentration (IC50) in the test with NCI-H441 cells (Homo sapiens, NCI-H441, 120 h) is 18.9 nM; with p-ERK (Homo sapiens, NCI-H441, 3 h), 3.97 nM.

For the compound `CCn1nc2c(c1-c1cc(C#CCN3CCS(=O)(=O)CC3)cnc1[C@H](C)OC)CC(C)(C)COC(=O)[C@@H]1CCCN(N1)C(=O)[C@@H](NC(=O)[C@H](C(C)C)N1CCC(C)C1=O)Cc1nc(cs1)/C=C/2` (atropisomer, axis not shown; (Ra)) [Compound Z116, (2S)-N-((4^2Z,8^3S,2E,6S)-(Ra)-1^5-(5-(3-(1,1-dioxothiomorpholinyl)prop-1-yn-1-yl)-2-((S)-1-methoxyethyl)pyridin-3-yl)-1^1-ethyl-12,12-dimethyl-7,9-dioxo-8^1,8^2,8^1,8^4,8^5,8^6-hexahydro-1^1H-10-oxo-4 (4,2)-thiazola-8(1,3)-pyridazina-1(3,4)-pyrrolacyclotridecaphan-2-en-6-yl)-3-methyl-2-(3-methyl-2-oxopyrrolidin-1-yl)butanamide], the IC50 in the test with NCI-H441 cells (Homo sapiens, NCI-H441, 120 h) was found to be 386 nM; with p-ERK (Homo sapiens, NCI-H441, 3 h), 115 nM.

Turning to `CCn1c(OC)c2c(c1-c1cc(C#CCN3CCS(=O)(=O)CC3)cnc1[C@H](C)OC)CC(C)(C)COC(=O)[C@@H]1CCCN(N1)C(=O)[C@@H](NC(=O)[C@H]1[C@H](C)[C@@H]1C)Cc1nc(cs1)/C=C/2` (atropisomer, axis not shown; (Ra)) [Compound Z191, (1r,2R,3S)-N-((4^2Z,8^3S,2E,6S)-(Ra)-1^5-(5-(3-(1,1-dioxidothiomorpholino)prop-1-yn-1-yl)-2-((S)-1-methoxyethyl)pyridin-3-yl)-1^1-ethyl-1^2-methoxy-12,12-dimethyl-7,9-dioxo-8^1,8^2,8^3,8^4,8^5,8^6-hexahydro-1^1H-10-oxa-4(4,2)-thiazola-8(1,3)-pyridazina-1(3,4)-pyrrolacyclotridecaphan-2-en-6-yl)-2,3-dimethylcyclopropane-1-carboxamide], the IC50 in the test with NCI-H441 cells (Homo sapiens, NCI-H441, 120 h) stood at 7.19 nM; in the test on p-ERK (Homo sapiens, NCI-H441, 3 h) it was 3.92 nM.

For `CCn1c(-c2cc(N3CCN(C)CC3)cnc2[C@H](C)OC)c2c3cc(ccc31)NC(=O)OC[C@H](NC(=O)[C@H]1[C@H](C)[C@@H]1C)C(=O)N1CCC[C@H](N1)C(=O)OCC(C)(C)C2` (single isomer, unassigned) [Compound Z2-1], the IC50 with NCI-H441 cells (Homo sapiens, NCI-H441, 120 h) was 374 nM; with p-ERK (Homo sapiens, NCI-H441, 3 h), 239 nM.

For the compound `CCn1nc2c(c1-c1cc(C#CCN3CCS(=O)(=O)CC3)cnc1C(C)OC)CC(C)(C)COC(=O)C1CCCN(N1)C(=O)C(NC(=O)C(C)Cc1ccnc(NC)c1)Cc1nc(cs1)C=C2` (single isomer, unassigned) [Compound Z52-1], the IC50 was 76.5 nM in the test with NCI-H441 cells and 52.3 nM in the test with p-ERK (Homo sapiens, NCI-H441, 3 h).

As to `CCn1nc2c(c1-c1cc(C#CCN3CCS(=O)(=O)CC3)cnc1C(C)OC)CC(C)(C)COC(=O)C1CCCN(N1)C(=O)C(NC(=O)C(C)Cc1ccnc(NC)c1)Cc1nc(cs1)C=C2` (single isomer, unassigned) [Compound Z52-2], the figures for the concentration for half-maximal inhibition (IC50) with NCI-H441 cells and in the test on p-ERK were 25 nM and 32 nM, respectively.
